Test system: SARS-CoV-2 pseudovirus (VSV-ΔG) entry into ACE2/Furin expressing host cells (Vero-E6)
Assay: microbe, parasite or virus in culture
Type: cell-based, SARS-CoV-2 pseudovirus / African Green Monkey cells
Settings: Severe acute respiratory syndrome-related coronavirus, Vero C1008, 20 h, read-out: IC50, inhibition of pseudovirus entry (VSV-ΔG)

| Compound | IC50 [µM] |
| --- | --- |
| O=C(Nc1ccc(-c2ccc(C(=O)Nc3cccc4cc(S(=O)(=O)O)ccc34)cc2)cc1)c1ccc([N+](=O)[O-])cc1 [Compound A2, 5-(4′-(4-Nitrobenzamido)biphenyl-4-ylcarboxamido)naphthalene-2-sulfonic acid] | 7 |
| Nc1c(/N=N/c2ccc(-c3ccc(/N=N/c4cc(S(=O)(=O)O)c5ccccc5c4N)cc3)cc2)cc(S(=O)(=O)O)c2ccccc12 [Congo red] | 16 |
